Measurements reported in patent publication US8592475B2, “Inhibitors of Akt activity” (GlaxoSmithKline LLC, priority 2008, dated 2013).

target: T1, full length AKT1 (Homo sapiens, UniProt P31749); experiment: AKT enzyme assay (substrate phosphorylation, SPA); format: biochemical; details: in at least one experimental run; pIC50 = -log(IC50), IC50 in molar units; 10 nM activated AKT enzyme, 4 uM ATP; read-out: pIC50 against full length AKT1 (converted)
T1 construct: His tag (from vector pFastBacHTb) (N); made in house; host or cells: baculovirus; Sf9 / T. ni insect cells
T1 sequence (P31749 whole entry): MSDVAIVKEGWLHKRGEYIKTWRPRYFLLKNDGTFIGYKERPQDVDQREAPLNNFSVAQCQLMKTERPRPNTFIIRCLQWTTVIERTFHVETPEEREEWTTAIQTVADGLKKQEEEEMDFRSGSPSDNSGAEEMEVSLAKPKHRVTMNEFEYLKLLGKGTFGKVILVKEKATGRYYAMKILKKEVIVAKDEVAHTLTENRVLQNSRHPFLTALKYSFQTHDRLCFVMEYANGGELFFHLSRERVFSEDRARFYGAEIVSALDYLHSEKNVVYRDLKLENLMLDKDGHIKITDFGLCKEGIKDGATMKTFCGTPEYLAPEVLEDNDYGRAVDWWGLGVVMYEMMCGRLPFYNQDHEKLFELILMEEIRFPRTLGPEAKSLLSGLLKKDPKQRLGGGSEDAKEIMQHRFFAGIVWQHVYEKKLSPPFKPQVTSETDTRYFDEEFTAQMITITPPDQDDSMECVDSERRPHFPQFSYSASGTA
From the text: Cloning of Full-length Human (FL) AKT1:
Full-length human AKT1 gene was amplified by PCR from a plasmid containing myristylated-AKT1-ER (gift from Robert T. Abraham, Duke University under MTA, described in Klippel et al. in Molecular and Cellular Biology 1998 Volume 18 p. 5699) using the 5′ primer: SEQ.ID NO: 2, 5′ […] 3′ and the 3′ primer: SEQ.ID NO: 3, […] 3′. The 5′ primer included a BamHI site and the 3′ primer included an XhoI site for cloning purposes. The resultant PCR product was subcloned in pcDNA3 as a BamHI/XhoI fragment. A mutation in the sequence (TGC) coding for a Cysteine^25 was converted to the wild-type AKT1 sequence (CGC) coding for an Arginine^25 by site-directed mutagenesis using the QuikChange® Site Directed Mutagenesis Kit (Stratagene). […] For expression/purification purposes, AKT1 was isolated as a BamHI/XhoI fragment and cloned into the BamHI/XhoI sites of pFastbacHTb (Invitrogen).
Expression of FL Human AKT1:
Expression was done using the BAC-to-BAC Baculovirus Expression System from Invitrogen (catalog #10359-016). Briefly 1) the cDNA was transferred from the FastBac vector into bacmid DNA, 2) the bacmid DNA was isolated and used to transfect Sf9 insect cells, 3) the virus was produced in Sf9 cells, 4) T. ni cells were infected with this virus and sent for purification.
Purification of FL Human AKT1:
For the purification of full-length AKT1, 130 g sf9 cells (batch #41646WO2) were resuspended in lysis buffer (buffer A, 1 L, pH 7.5) containing 25 mM HEPES, 100 mM NaCl, and 20 mM imidazole. The cell lysis was carried out by Avestin (2 passes at 15K-20K psi). Cell debris was removed by centrifuging at 16K rpm for 1 hour and the supernatant was batch bound to 10 ml Nickel Sepharose HP beads at 4 C for over night. The beads were then transferred to column and the bound material was eluted with buffer B (25 mM HEPES, 100 mM NaCl, 300 mM imidazole, pH 7.5). AKT eluting fractions were pooled and diluted 3 fold using buffer C (25 mM HEPES, 5 mM DTT; pH 7.5). The sample was filtered and chromatographed over a 10 mL Q-HP column pre-equilibrated with buffer C at 2 mL/min.
The Q-HP column was washed with 3 column volume (CV) of buffer C, then step eluted with 5 CV 10% D, 5 CV 20% D, 5 CV 30% D, 5 CV 50% D and 5 CV of 100% D; where buffer D is 25 mM HEPES, 1000 mM NaCl, 5 mM DTT; pH 7.5. 5 mL fractions collected. AKT containing fractions were pooled and concentrated to 5 ml. The protein was next loaded to a 120 ml Superdex 75 sizing column that was pre-equilibrated with 25 mM HEPES, 200 mM NaCl, 5 mM DTT; pH 7.5. 2.5 mL fractions were collected.
AKT 1 eluting fractions were pooled, aliquoted (1 ml) and stored at −80 C. Mass spec and SDS-PAGE analysis were used to confirm purity and identity of the purified full-length AKT1.
Compounds of the present invention are tested for AKT 1, 2, and 3 protein serine kinase inhibitory activity in substrate phosphorylation assays. This assay examines the ability of small molecule organic compounds to inhibit the serine phosphorylation of a peptide substrate. The substrate phosphorylation assays use the catalytic domains of AKT 1, 2, or 3. AKT 1, 2 and 3 are also commercially available from Upstate USA, Inc. The method measures the ability of the isolated enzyme to catalyze the transfer of the gamma-phosphate from ATP onto the serine residue of a biotinylated synthetic peptide SEQ. ID NO: 5 (Biotin-ahx-ARKRERAYSFGHHA-amide). Substrate phosphorylation is detected by the following procedure: […]

IC50 [nM]	Compound
158	Cn1nccc1-c1c(Cl)sc(NC(=O)C(CN)c2ccccc2)c1Cl (centres unmarked) [Example 1, 3-amino-N-[3,5-dichloro-4-(1-methyl-1H-pyrazol-5-yl)-2-thienyl]-2-phenylpropanamide]
10	Cn1ncc(Cl)c1-c1cc(NC(=O)[C@@H](CN)Cc2ccccc2)sc1Cl [Example 5, (2R)-3-amino-N-[5-chloro-4-(4-chloro-1-methyl-1H-pyrazol-5-yl)-2-thienyl]-2-(phenylmethyl)propanamide]
1.58	Cn1ncc(Cl)c1-c1cc(NC(=O)[C@H](CN)Cc2ccc(F)c(F)c2)sc1Cl [Example 7, (2S)-3-amino-N-[5-chloro-4-(4-chloro-1-methyl-1H-pyrazol-5-yl)-2-thienyl]-2-[(3,4-difluorophenyl)methyl]propanamide]
5.01	Cn1ncc(Cl)c1-c1cc(NC(=O)[C@@H](CN)Cc2ccccc2F)sc1Cl [Example 10, (2R)-3-amino-N-[5-chloro-4-(4-chloro-1-methyl-1H-pyrazol-5-yl)-2-thienyl]-2-[(2-fluorophenyl)methyl]propanamide]
2.51	Cn1ncc(Cl)c1-c1cc(NC(=O)[C@H](CN)Cc2cccc(F)c2)sc1Cl [Example 13, (2S)-3-amino-N-[5-chloro-4-(4-chloro-1-methyl-1H-pyrazol-5-yl)-2-thienyl]-2-[(3-fluorophenyl)methyl]propanamide]
